Literature values as cited in patent US20100167988A1, “ETHOXYPHENYLMETHYL INHIBITORS OF SGLT2” (AUSPEX PHARMACEUTICALS, INC., priority 2008, published 2010).

Tested on: multiple CYP enzymes, including CYP1A1, CYP1A2, CYP2A6, CYP2C9, CYP2D6, and CYP3A4
Conditions: recombinant CYP isoforms, in vitro

For CCOc1ccc(Cc2cc([C@@H]3O[C@H](CO)[C@@H](O)[C@H](O)[C@H]3O)ccc2Cl)cc1 [Dapagliflozin, (2S,3R,4R,5S,6R)-2-(3-(4-ethoxybenzyl)-4-chlorophenyl)-6-(hydroxymethyl)-tetrahydro-2H-pyran-3,4,5-triol], the turnover is listed as “low”.
